Data published in the SangsterLogP compilation.

Key:
[1] = method code SF-TN, from Korenman, I M.; Gurevich, N.; Kulagina, G. (1973). Extraction of certain n-alkylamines from aqueous solutions. Zh. Prikl. Khim., 46(3)726-728.
[2] = method code SF-GLC, from DOI: 10.1021/ac00241a023
[3] = method code SF-HPLC, from DOI: 10.1016/s0045-6535(01)00105-9, PMID: 11695583
[4] = method code SF, from DOI: 10.1016/0005-2744(69)90103-x, PMID: 4387594
[5] = not given; remark: listed apart in the source
[6] = method code SF, from DOI: 10.1016/s0960-894x(00)80094-3; settings: pH 7.4
[7] = method code SF-RI, from Korenman, M.; Dobromyslova, M. (1975). Distribution of cellosolves between organic solvents and water. Zh. Prikl. Khim., 48(12)2791-2794.
[8] = method code SF, from DOI: 10.1016/j.tca.2016.07.020; settings: pH 7.4
[9] = not given; remark: listed apart in the source
[10] = method code SF-AS, from Suikov, S.Yu.; Bondarenko, A.V.; Bogza, S.L.; Lutsyk, A.I. (2003). Distribution of 5-aminopyrazoles and 5-aminoisoxazoles in the octanol-water system. Ukr. Khim. Zh. (Russ. Ed.), 69(5/6)31-34.
[11] = not given; remark: listed apart in the source
[12] = not given; remark: listed apart in the source
[13] = method code G-HPLC, from He, Y.; Zhao, Y.; Wang, L.; An, F.; Mo, H.; Yang, K.; Liu, Y.; Yu, G.; Xu, X. (1994). Determination of n-octanol/water partition coefficient of organic compound. Huanjing Huaxue, 13(3)195-197.
[14] = method code SF-AS, from Kosanovic, D.; Dumanovic, D.; Jovanovic, J. (1988). Solubility in octanol And the octanol-water partition coefficients of some 4(5)- and 5-nitroimidazoles. 53(10)559-563.
[15] = method code SF-CR+AS, from Korenman, I.; Kotelyanskaya, B.; Nefedova, A. (1976). Extraction of mononitrophenols from aqueous solutions. Zh. Prikl. Khim., 49(5)1150-1152.
[16] = method code SF-GR, from DOI: 10.1021/jm00219a024, PMID: 926124
[17] = method code SF-AS, from DOI: 10.1021/jm00197a006, PMID: 533877
[18] = method code SF-AS, from DOI: 10.1081/jlc-120022394
[19] = method code SF, from DOI: 10.1002/etc.5620130110
[20] = not given; remark: listed apart in the source
[21] = from Wadhwa, L.; Chandiran, S.; Sharma, P. (2004). Alkyl esters of 6-methoxy-2-naphthylacetic acid as potential prodrugs - Synthesis, physicochemical properties, chemical stability and enzymatic …; settings: pH 7.4
[22] = method code SF, from DOI: 10.1021/jm030399c, PMID: 14711317; settings: pH 7.4
[23] = method code SF-GLC, from DOI: 10.1021/je970020p
[24] = not given; remark: listed apart in the source
[25] = method code SF, from DOI: 10.1016/0041-008x(67)90079-8
[26] = not given; remark: listed apart in the source
[27] = not given; remark: listed apart in the source
[28] = not given; remark: listed apart in the source
[29] = not given; remark: listed apart in the source
[30] = method code SF, from DOI: 10.1016/0014-2999(70)90221-9, PMID: 5440297; settings: pH 7.4
[31] = method code SF-AS, from DOI: 10.1002/jps.2600671008, PMID: 702280; settings: pH 7.0
[32] = method code SF, from DOI: 10.1177/00220345800590120501, PMID: 6941993
[33] = method code SF-AS, from DOI: 10.1016/0891-5849(94)00112-w, PMID: 7744299; settings: pH 7.5
[34] = not given; remark: listed apart in the source
[35] = not given; remark: listed apart in the source
[36] = method code SF-HPLC, from DOI: 10.1016/0378-5173(89)90133-6; settings: pH 7.4
[37] = method code SF-GLC, from DOI: 10.1021/jo01265a071
[38] = not given; remark: listed apart in the source
[39] = not given; remark: listed apart in the source
[40] = method code SF-HPLC, from DOI: 10.1016/j.nucmedbio.2010.03.011, PMID: 20610161; settings: pH 7.4
[41] = method code SF-AS, from DOI: 10.1016/0045-6535(84)90003-1
[42] = not given; remark: listed apart in the source
[43] = method code SF-AS, from DOI: 10.2116/analsci.8.761; settings: pH 6.0
[44] = method code SF-AS, from DOI: 10.1021/jm00291a017, PMID: 5140011
[45] = method code SF-AS, from PMID: 7149911; settings: pH 8.9
[46] = not given; remark: listed apart in the source
[47] = not given; remark: listed apart in the source
[48] = not given; remark: listed apart in the source
[49] = method code SF-TN, from DOI: 10.1085/jgp.71.1.93, PMID: 621494
[50] = method code SF-CR+AS, from Korenman, Y. (1974). Extraction of 2-halophenols from aqueous solutions. Zh. Prikl. Khim., 47(7)1663-1666.
[51] = method code SF-HPLC, from DOI: 10.1016/j.ejps.2013.10.002, PMID: 24161609
[52] = method code SF-HPLC, from DOI: 10.1016/j.bmcl.2004.01.062, PMID: 15026043; settings: pH 5.5

SMILES: CCCN
- logP [1]: 0.28

SMILES: Brc1cc(Br)c(Br)cc1Br
- logP [2]: 5.13

SMILES: Brc1ccc(Br)c(Br)c1Br
- logP [3]: 5

SMILES: Nc1cccc(Br)c1
- logP [4]: 2.1

SMILES: Oc1cc(Cl)c(Cl)cc1Cl
- logP: 3.63

SMILES: O=C(O)P(=O)(O)O
- logP [5]: -2

SMILES: C[C@@H]1CN(O)C(=O)[C@@H]1N
- logD [6]: -3.42

SMILES: CC(C)OCCO
- logP [7]: 0.05

SMILES: NC(=S)c1ccccn1
- logD [8]: 1.14

SMILES: Cc1nnn[nH]1
- logP [9]: -0.49

SMILES: Cc1noc(N)c1-c1ccccc1
- logP [10]: 2.02

SMILES: Clc1ccc(Cl)cc1
- logP [11]: 3.48

SMILES: Oc1cccc(Cl)c1Cl
- logP [12]: 2.98

SMILES: Clc1ccccc1Cl
- logP [13]: 3.34

SMILES: Cc1ncc([N+](=O)[O-])n1C
- logP [14]: 0.31

SMILES: O=[N+]([O-])c1ccc(O)cc1
- logP [15]: 1.95

SMILES: CCCNC(=O)NO
- logP [16]: -0.22

SMILES: CC(=O)C=NO
- logP [17]: 0.39

SMILES: CCOC(=O)C(=Cc1ccc(OC)c(OC)c1)NC=O
- logP [18]: 1.97

SMILES: COP(=O)(OC)C(O)C(Cl)(Cl)Cl (stereo unspecified)
- logP [19]: 1.7

SMILES: CCCCCO
- logP [20]: 1.41

SMILES: COC(=O)Cc1ccc2cc(OC)ccc2c1
- logD [21]: 3.04

SMILES: O=C(NCCOCCNc1n[n+]([O-])c2ccccc2[n+]1[O-])c1cccc2cc3ccccc3nc12
- logD [22]: 1.84

SMILES: Clc1c(Cl)c(Cl)c(Cl)c(Cl)c1Cl
- logP [23]: 5.74

SMILES: Oc1c(Br)cc(Br)cc1Br
- logP [24]: 4.24

SMILES: Clc1nc(Cl)c(Cl)c(Cl)c1Cl
- logP [25]: 3.53

SMILES: Oc1cc(Br)ccc1Br
- logP [26]: 3.22

SMILES: O=[N+]([O-])/C=C1\NCCCS1
- logP [27]: -0.4

SMILES: Oc1nc(Cl)c(Cl)cc1Cl
- logP [28]: 2.27

SMILES: CSc1ncnc2[nH]cnc12
- logP [29]: 0.57

SMILES: O=C[C@H](O)[C@H](O)[C@H](O)CO
- logD [30]: -2.32

SMILES: CCCCOC(=O)Cc1ccc2cc(OC)ccc2c1
- logD [21]: 4.75

SMILES: Clc1ccccn1
- logD [31]: 1.34

SMILES: C=COC(C)=O
- logP [32]: 0.6

SMILES: CC(C)(C)N=O
- logD [33]: 0.91

SMILES: Brc1ccc(Br)cc1
- logP [34]: 3.89

SMILES: CC(Cl)Cl
- logP [35]: 1.82

SMILES: OC(Cn1ccnc1)c1ccc(CCc2ccccc2)cc1 (stereo unspecified)
- logD [36]: 3.4

SMILES: CCCCCl
- logP [37]: 2.39

SMILES: Oc1c(Cl)cc(Cl)c(Cl)c1O
- logP [38]: 3.6

SMILES: CNC(N)=S
- logP [39]: -0.68

SMILES: O=[N+]([O-])c1ncn(CC(O)CF)n1 (stereo unspecified)
- logD [40]: -0.46

SMILES: Oc1cc(Cl)cc(Cl)c1Cl
- logP [41]: 3.84

SMILES: O=[N+]([O-])c1cncnc1
- logP [42]: -0.05

SMILES: OCc1cc(Br)cc(Br)c1O
- logD [43]: 2.72

SMILES: S=C1CCCN1
- logP [44]: -0.05

SMILES: CN(N=O)C(N)=O
- logD [45]: -0.4

SMILES: OCCC(F)(F)C(F)(F)C(F)(F)C(F)(F)F
- logP [46]: 3.28

SMILES: Oc1c(Cl)c(Cl)c(Cl)c(Cl)c1Cl
- logP [47]: 4.79

SMILES: CCCC[N+](=O)[O-]
- logP [48]: 1.38

SMILES: CCCC(O)C(=O)O (stereo unspecified)
- logP [49]: 0.45

SMILES: Oc1ccccc1I
- logP [50]: 2.64

SMILES: CCOC(=O)C(=Cc1ccc(OC)cc1)NC=O
- logP [18]: 2.22

SMILES: O=C(O)/C=C/C(=O)O
- logP [51]: -0.04

SMILES: CN(C)C(=O)Oc1ccc(CC(NC(=O)C2N(S(=O)(=O)c3cnn(C)c3)CSC2(C)C)C(=O)OCCOc2ccccc2)cc1 (stereo unspecified)
- logD [52]: 3.27

SMILES: Cc1c(-c2ccccc2)n[nH]c1N
- logP [10]: 1.65
